This is an account of results in US10196393B2, “JAK inhibitors containing a 4-membered heterocyclic amide” (THERAVANCE BIOPHARMA R&D IP, LLC, priority 2017, dated 2019).

The subject of the experiment is IL-5 mediated eosinophil survival in human eosinophils. In words: IL-5 mediated eosinophil survival assay. The class given is cell-based. To be noted: 72 h, read-out: pIC50, IL-5 mediated eosinophil survival (converted). The procedure: Assay 6: IL-5 Mediated Eosinophil Survival Assay
The potency of the test compound for IL-5 mediated eosinophil survival was measured in human eosinophils isolated from human whole blood (AllCells). Because IL-5 signals through JAK, this assay provides a measure of JAK cellular potency.
Human eosinophils were isolated from fresh human whole blood (AllCells) of healthy donors. Blood was mixed with 4.5% Dextran (Sigma-Aldrich) in a 0.9% sodium chloride solution (Sigma-Aldrich). Red blood cells were left to sediment for 35 minutes. The leukocyte rich upper layer was removed and layered over Ficoll-Paque (GE Healthcare) and centrifuged at 600 g for 30 minutes. The plasma and mononuclear cell layers were removed before the granulocyte layer was lysed with water to remove any contaminating red blood cells. […] Purity was analyzed using a LSRII flow cytometer (BD Biosciences). […]
After cytokine stimulation, cells were centrifuged at 300 g for 5 min and washed twice with cold DPBS (Life Technologies). To access viability and apoptosis, cells were incubated with Propidium Iodide (Thermo Fisher Scientific) and APC Annexin V (BD Biosciences) and analyzed using a LSRII flow cytometer (BD Biosciences). IC50 values were determined from analysis of the viability curves of percent cell viability vs compound concentration. Data are expressed as pIC50 (negative decadic logarithm IC50) values.

Where two headings read alike, the source gives them in different places.

On to `CCc1cc(O)c(F)cc1-c1ccc2c(-c3nc4c([nH]3)CN(C(C)C)[C@H](C(=O)N3CC(N(C)C)C3)C4)n[nH]c2c1` [Example 2, (S)-(3-(dimethylamino)azetidin-1-yl)(2-(6-(2-ethyl-5-fluoro-4-hydroxyphenyl)-1H-indazol-3-yl)-5-isopropyl-4,5,6,7-tetrahydro-3H-imidazo[4,5-c]pyridin-6-yl)methanone], for which the IC50 was 25.1 nM (in the presence of 10 pg/ml IL-5, 72 hours) and 631 nM (in the presence of 1 ng/ml IL-5, 72 hours).
